Assay results as given in the supplement of paper PMC10307832.

Columns and labels:
Test in all cases: relative viability (nuclei count vs DMSO), 5 days (fraction); higher = more cells survive
[1] = compound: CC1=C(C(=O)N2C=CSC2=N1)CCN3CCC(=C(C4=CC=CC=C4)C5=CC=C(C=C5)F)CC3 + CC(=O)c1c(C)c2cnc(Nc3ccc(N4CCNCC4)cn3)nc2n(C2CCCC2)c1=O [Palbociclib] (partner 0.5 µM)
Method in brief: (§1)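 Dosing by pin tool came one day after lung cancer cell lines were seeded in 1536-well plates, using either one drug or a fixed anchor-drug dose plus five library-drug doses (not always all listed) in √10 steps. After 5 days, nuclei were counted on 4× images. Relative viability is treated-well nuclei count divided by vehicle-well nuclei count, and values are medians of duplicate plates.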

[2] = compound: CC1=C(C(=O)N2C=CSC2=N1)CCN3CCC(=C(C4=CC=CC=C4)C5=CC=C(C=C5)F)CC3 + CS(=O)(=O)N1CCN(Cc2cc3nc(-c4cccc5[nH]ncc45)nc(N4CCOCC4)c3s2)CC1 [Pictilisib] (partner 1 µM)
Method in brief: as §1

[3] = compound: CC1=C(C(=O)N2C=CSC2=N1)CCN3CCC(=C(C4=CC=CC=C4)C5=CC=C(C=C5)F)CC3 + N=C(N)NC(=N)NCCc1ccccc1 [Phenformin] (partner 250 µM)
Method in brief: as §1

[4] = compound: CC1=C(C(=O)N2C=CSC2=N1)CCN3CCC(=C(C4=CC=CC=C4)C5=CC=C(C=C5)F)CC3 + Nc1ncn([C@H]2C[C@H](O)[C@@H](CO)O2)c(=O)n1 [Decitabine] (partner 2 µM)
Method in brief: as §1

Row | Cell Line | relative viability ([1]; first compound 0.08 µM) | relative viability ([1]; first compound 0.253 µM) | relative viability ([1]; first compound 0.8 µM) | relative viability ([1]; first compound 2.53 µM) | relative viability ([1]; first compound 8 µM) | relative viability ([2]; first compound 0.08 µM) | relative viability ([2]; first compound 0.253 µM) | relative viability ([2]; first compound 0.8 µM) | relative viability ([2]; first compound 2.53 µM) | relative viability ([2]; first compound 8 µM) | relative viability ([3]; first compound 0.08 µM) | relative viability ([3]; first compound 0.253 µM) | relative viability ([3]; first compound 0.8 µM) | relative viability ([3]; first compound 2.53 µM) | relative viability ([3]; first compound 8 µM) | relative viability ([4]; first compound 0.08 µM) | relative viability ([4]; first compound 0.253 µM) | relative viability ([4]; first compound 0.8 µM) | relative viability ([4]; first compound 2.53 µM) | relative viability ([4]; first compound 8 µM)
1 | HCC-15 | 0.738 | 0.744 | 0.679 | 0.729 | 0.556 | 0.714 | 0.752 | 0.714 | 0.773 | 0.587 | 0.432 | 0.453 | 0.434 | 0.423 | 0.334 | 0.831 | 0.651 | 0.601 | 0.642 | 0.604
2 | HARA | 0.307 | 0.275 | 0.276 | 0.289 | 0.285 | 0.527 | 0.423 | 0.383 | 0.202 | 0.289 | 0.525 | 0.513 | 0.54 | 0.544 | 0.269 | 0.639 | 0.664 | 0.526 | 0.515 | 0.427
3 | LCLC-97TM1 | 0.255 | 0.217 | 0.284 | 0.283 | 0.205 | 0.208 | 0.297 | 0.217 | 0.182 | 0.167 | 0.435 | 0.434 | 0.447 | 0.448 | 0.411 | 0.234 | 0.252 | 0.216 | 0.253 | 0.181
4 | NCI-H1793 | 0.212 | 0.311 | 0.272 | 0.345 | 0.318 | 0.368 | 0.283 | 0.249 | 0.341 | 0.23 | 0.301 | 0.379 | 0.404 | 0.402 | 0.241 | 0.433 | 0.558 | 0.502 | 0.505 | 0.416
5 | EMC-BAC-2 | 0.497 | 0.494 | 0.493 | 0.46 | 0.506 | 0.543 | 0.516 | 0.505 | 0.617 | 0.424 | 0.536 | 0.495 | 0.497 | 0.526 | 0.414 | 1.14 | – | 1.01 | 1.03 | 0.906
6 | NCI-H520 | 0.211 | 0.235 | 0.238 | 0.223 | 0.19 | 0.315 | 0.334 | 0.348 | 0.33 | 0.292 | 0.784 | 0.643 | 0.836 | 0.539 | 0.468 | 0.471 | 0.565 | 0.519 | 0.515 | 0.445
7 | H3255 | 0.273 | 0.317 | 0.313 | 0.311 | 0.303 | 0.448 | 0.389 | 0.515 | 0.537 | 0.4 | 0.341 | 0.34 | 0.352 | 0.37 | 0.38 | 0.688 | 0.549 | 0.521 | 0.664 | 0.495
8 | NCI-H1355 | 0.368 | 0.404 | 0.378 | 0.407 | 0.455 | 0.445 | 0.504 | 0.534 | 0.472 | 0.385 | 0.428 | 0.442 | 0.441 | 0.427 | 0.391 | 0.38 | 0.382 | 0.369 | 0.354 | 0.368
9 | NCI-H1563 | – | – | – | – | – | 0.542 | 0.684 | 0.66 | 0.633 | 0.637 | 0.654 | 0.7 | 0.695 | 0.633 | 0.648 | – | – | – | – | –
10 | NCI-H1395 | 0.623 | 0.656 | 0.551 | 0.616 | 0.61 | 0.772 | 0.641 | 0.531 | 0.572 | 0.629 | 0.511 | 0.432 | 0.435 | 0.453 | 0.432 | 0.718 | 0.782 | 0.652 | 0.688 | 0.674
11 | CAL-12T | 0.371 | 0.389 | 0.434 | 0.462 | 0.319 | – | 0.445 | 0.411 | 0.42 | 0.387 | 0.55 | 0.593 | 0.544 | 0.605 | 0.346 | – | – | – | – | –
12 | NCI-H1703 | – | – | – | – | – | 0.298 | 0.248 | 0.266 | 0.295 | 0.248 | – | – | – | – | – | – | – | – | – | –
13 | NCI-H1648 | 0.254 | 0.316 | 0.22 | 0.326 | 0.249 | – | – | – | – | – | – | – | – | – | – | 0.528 | 0.587 | 0.513 | 0.456 | 0.453
14 | Calu-6 | – | – | – | – | – | 0.937 | 0.847 | 0.915 | 1.2 | 0.54 | – | – | – | – | – | – | – | – | – | –
15 | SW 900 | 0.524 | 0.514 | 0.543 | 0.58 | 0.526 | – | – | – | – | – | 0.474 | 0.68 | 0.521 | 0.568 | 0.516 | 0.477 | 0.437 | 0.407 | 0.45 | 0.496
16 | NCI-H2228 | 0.56 | 0.68 | 0.723 | 0.468 | 0.432 | 0.648 | 0.295 | 0.276 | 0.504 | 0.283 | 0.261 | 0.301 | 0.376 | 0.348 | 0.256 | – | – | – | – | –
17 | NCI-H596 | – | – | – | – | – | 0.435 | 0.418 | 0.38 | 0.369 | 0.386 | 0.702 | 0.826 | 0.915 | 0.74 | 0.578 | 0.908 | 0.939 | 1.06 | 1.01 | 0.761
18 | NCI-H522 | 1.08 | 1.09 | 0.809 | 0.977 | 0.933 | – | – | – | – | – | 0.769 | 0.627 | 0.677 | 0.607 | 0.566 | 0.729 | 0.629 | 0.793 | 0.592 | 0.686
19 | NCI-H1299 | – | – | – | – | – | 1 | 0.906 | 0.754 | 1.05 | 0.575 | – | – | – | – | – | – | – | – | – | –
20 | IA-LM | – | – | – | – | – | – | 0.354 | 0.211 | 0.345 | 0.234 | – | – | – | – | – | – | – | – | – | –
